Data taken from patent US20140011977A1, “CHIMERIC MOLECULES TO MODULATE GENE EXPRESSION” (Cold Spring Harbor Laboratory, priority 2000, published 2014).

B1: SC35: recombinant human SR protein SC35 used to complement S100 extract (protein, UniProt Q01130 2-221, looked up)
Serine/arginine-rich splicing …: SYGRPPPDVEGMTSLKVDNLTYRTSPDTLRRVFEKYGRVGDVYIPRDRYTKESRGFAFVRFHDKRDAEDAMDAMDGAVLDGRELRVQMARYGRPPDSHHSRRGPPPRRYGGGGYGRRSRSPRRRRRSRSRSRSRSRSRSRSRYSRSKSRSRTRSRSRSTSKSRSARRSKSKSSSVSRSRSRSRSRSRSRSPPPVSKRESKSRSRSKSPPKSPEEEGAVSS

Columns and labels:
SMN1 pre-mRNA exon 7 = test: S100 extract complementation in vitro splicing, SMN1 pre-mRNA; type: biochemical, human; details: S100 extract complemented with 4 pmol recombinant SR protein, 4 hours
Method: (§1) Finally, splicing of SNM1 and SMN2 pre-mRNAs in S100-complementation experiments was used to test the SR protein specificity of the ESEs. S100 extract is a post-nuclear, post-ribosomal fraction capable of supporting in vitro splicing only when complemented with one or more SR proteins. When the SMN pre-mRNAs were incubated in S100 extract alone, spliced products were barely detectable (FIG. 17b, lanes 5-8).
(§2) 5′ capped, T7 runoff transcripts from purified PCR products were uniformly labeled with [α-^32P] UTP, purified by denaturing PAGE, and spliced in HeLa cell nuclear or S100 extracts, as described. Briefly, 10 fmol of transcript was incubated in 12.5-μl standard splicing reactions containing 3 μl of nuclear extract or 2 μl of S100 extract complemented with 4 pmol of recombinant SC35 or SF2/ASF. The MgCl2 concentration was 2.4 mM for BRCA1 transcripts and 1.6 mM for SMN transcripts. After incubation at 30° C. for 4 hours, RNA was extracted and analyzed on 12% (BRCA1) or 8% (SMN) denaturing polyacrylamide gels, followed by autoradiography and phosphorimager analysis. Exon inclusion was calculated as a percentage of the total amount of spliced mRNAs, i.e., included mRNA×100/(included mRNA+skipped mRNA).

SMN2 pre-mRNA exon 7 = test: S100 extract complementation in vitro splicing, SMN2 pre-mRNA; type: biochemical, human
Method: as §1, §2

β-globin pre-mRNA = test: S100 extract complementation with β-globin pre-mRNA; type: biochemical; details: data not shown

Molecule | exon 7 inclusion, SMN1 pre-mRNA (SMN1 pre-mRNA exon 7) | exon 7 inclusion, SMN2 pre-mRNA (SMN2 pre-mRNA exon 7; S100 extract complemented with 4 pmol recombinant SR protein, 4 hours) | exon 7 inclusion, SMN2 context, high concentrations of SR protein (SMN2 pre-mRNA exon 7; S100 extract, high concentrations, data not shown) | complementation of S100 extract (β-globin pre-mRNA)
SF2/ASF: recombinant human SR protein SF2/ASF used to complement S100 extract | promoted exon 7 inclusion | much less efficiently | promoted significant inclusion | 
B1 | failed to drive exon 7 inclusion |  |  | efficiently complemented S100 extract
